What is called CC50 is the concentration that lowers cell viability or growth by half.

Molecules are shown by their SMILES.

One series can be described thus: Cytotoxicity assay (AlamarBlue) in mock infected MT-2 cells. Type of series: cell-based. The conditions noted are these: human. Here is the method:
The present assay was used to screen candidate antiviral compounds by quantification of virus spread and production over several rounds of infection in vitro. MT-2, a HIV-1 permissive human T-cell line, was seeded in microtiter plates and was simultaneously treated with serially diluted compound and inoculated with a HIV-1 NL4-3 viral clone engineered to express Renilla luciferase in place of Nef. Following treatment, the culture was incubated for 96 hours. After the incubation, media was collected and used to estimate relative infectivity on the indicator cell line, TZM-bl. Additionally, viral spread was quantified by measuring luciferase activity via a commercially available luciferase substrate. In parallel, MT-2 cells were seeded and inoculated with mock virus in the presence of serially diluted compound. Compound toxicity was quantified 96 hours after treatment with AlamarBlue.
MT-2 (NIH Aids reagent program 237) cells were grown and maintained in an incubator at 37° C. with 5% CO2 using a basal medium of RPMI-1640 supplemented with 10% FBS. Cells were seeded in 100 μl at 2×10^4 cells/well in white walled 96-well microtiter plates. Candidate compounds were 3-fold serially diluted in the appropriate solvent. Solvent without compound was used as a no drug reference. Cells were inoculated at a multiplicity of 0.027 with an HIV-1 NL4-3 virus stock engineered to express Renilla luciferase in place of Nef. Diluted virus stock was first added to serially diluted compound. Compound and virus were delivered to cells in an equal volume (100 μl) and treated cultures were returned to the incubator for 96 hours. In parallel, plates for cytotoxicity estimates were prepared in the same way except cells were plated in clear walled 96-well microtiter plates and were mock infected.
At 96 hours post treatment, 20 μl AlamarBlue proliferation reagent was added to 200 μl treated and mock infected cultures and incubated for 3 hours at 37° C. with 5% CO2 then read at 545, 590 nm on fluorescence plate reader (Biotek).
For all assays, data was imported into Accelrys Assay Explorer 3.3. In Assay Explorer, % inhibition (antiviral or cytotoxicity) was calculated using the solvent control as a reference by the following equation: 1−(SignalCompound/SignalReference). The % Inhibition and compound concentration data was fitted using the following 4-parameter logistic model (Assay Explorer model 42):
[formula] where X is compound concentration, Y is % inhibition, D is the maximum % Inhibition (constrained to 100%), C is IC50 value or inflection point, B is the hill slope, and A is the minimum % inhibition (constrained to 0%). The IC50 value is reported as the EC50 or CC50 depending on the assay endpoint. EC50 represents the effective concentration at which virus replication is inhibited by 50 percent. CC50 represents the concentration that results in the death of 50 percent of the host cells. The selectivity or therapeutic index (SI or TI), is the ratio of CC50 over EC50 and represents the relative effectiveness in inhibiting viral replication compared to inducing cell death.
In the case of `COc1cc2c(cc1OCc1ccccc1)CCNC2/C=C/c1cc2c(cc1C)OCO2` (centres unmarked) [BB, 6-(benzyloxy)-7-methoxy-1-[(E)-2-(6-methyl-2H-1,3-benzodioxol-5-yl)ethenyl]-1,2,3,4-tetrahydroisoquinoline], the half-maximal cytotoxic concentration (CC50) at 96 h stood at 2.98 µM. Still for that read-out and setting: the same measure for `COc1cc2c(cc1OCc1ccccc1)CCNC2/C=C/c1ccc2c(c1)CCO2` (centres unmarked) [BM, 6-(benzyloxy)-1-[(E)-2-(2,3-dihydro-1-benzofuran-5-yl)ethenyl]-7-methoxy-1,2,3,4-tetrahydroisoquinoline]: 20.4 µM; for `COc1ccc(/C=C/C2NCCc3cc(OCc4ccccc4)c(OC)cc32)cc1F` (centres unmarked) [BF, 6-(benzyloxy)-1-[(E)-2-(3-fluoro-4-methoxyphenyl)ethenyl]-7-methoxy-1,2,3,4-tetrahydroisoquinoline]: 33.5 µM; for `COc1cc2c(cc1OCc1ccccc1)CCNC2/C=C/c1cccc(-c2ccncc2)c1` (centres unmarked) [DQ, 6-(benzyloxy)-7-methoxy-1-[(E)-2-[3-(pyridin-4-yl)phenyl]ethenyl]-1,2,3,4-tetrahydroisoquinoline]: 4.4 µM.

The molecule `CCCCOc1ccc(/C=C/C2NCCc3cc(OCc4ccccc4)c(OC)cc32)cc1OC` (centres unmarked) [BD, 6-(benzyloxy)-1-[(E)-2-(4-butoxy-3-methoxyphenyl)ethenyl]-7-methoxy-1,2,3,4-tetrahydroisoquinoline] came in with a CC50 at 96 h of 3.62 µM.

The molecule `CCCCN1CCc2cc(OCc3ccccc3)c(OC)cc2C1/C=C/c1ccc(OC)c(OCc2ccccc2)c1` (centres unmarked) [Example G, 6-Benzyloxy-1-[(E)-2-(3-benzyloxy-4-methoxy-phenyl)vinyl]-2-butyl-7-methoxy-3,4-dihydro-1H-isoquinoline] came in with a CC50 at 96 h of 5 µM.

Turning to `COc1cc(/C=C/C2NCCc3cc(OC)c(OCc4ccccc4)cc32)ccc1OCc1ccccc1` (centres unmarked) [Example S, 7-benzyloxy-1-[(E)-2-(4-benzyloxy-3-methoxy-phenyl)vinyl]-6-methoxy-1,2,3,4-tetrahydroisoquinoline], the midpoint of cytotoxicity, the CC50 at 96 h, lay at 8.25 µM. `COc1ccc(/C=C/C2NCCc3cc(OCc4ccccc4)c(OC)cc32)c(OC)n1` (centres unmarked) [CA, 6-(benzyloxy)-1-[(E)-2-(2,6-dimethoxypyridin-3-yl)ethenyl]-7-methoxy-1,2,3,4-tetrahydroisoquinoline] showed a CC50 at 96 h of 15.3 µM. On the same count and under the same terms, the same measure for `COc1cc(C)c(/C=C/C2NCCc3cc(OCc4ccccc4)c(OC)cc32)cc1C` (centres unmarked) [BV, 6-(benzyloxy)-7-methoxy-1-[(E)-2-(4-methoxy-2,5-dimethylphenyl)ethenyl]-1,2,3,4-tetrahydroisoquinoline]: 2.63 µM; for `CCc1cc(OC)c(OCc2ccccc2)cc1/C=C/C1NCCc2cc(OCc3ccccc3)c(OC)cc21` (centres unmarked) [Example AA, 6-benzyloxy-1-[(E)-2-(5-benzyloxy-2-ethyl-4-methoxy-phenyl)vinyl]-7-methoxy-1,2,3,4-tetrahydroisoquinoline]: 3.89 µM; for `COc1cc(C)c(/C=C/C2c3cc(OC)c(OCc4ccccc4)cc3CCN2C(=O)OC(C)(C)C)cc1OCc1ccccc1` (centres unmarked) [Example Y, tert-butyl 6-benzyloxy-1-[(E)-2-(5-benzyloxy-4-methoxy-2-methyl-phenyl)vinyl]-7-methoxy-3,4-dihydro-1H-isoquinoline-2-carboxylate]: 28.1 µM.

For `CCOC(=O)c1ccccc1/C=C/C1NCCc2cc(OCc3ccccc3)c(OC)cc21` (centres unmarked) [ET, ethyl 2-[(E)-2-[6-(benzyloxy)-7-methoxy-1,2,3,4-tetrahydroisoquinolin-1-yl]ethenyl]benzoate], it took 9.9 µM to reach half-maximal cytotoxicity (CC50 at 96 h). Still for that read-out and setting: the same measure for `COc1ccc2cc(/C=C/C3NCCc4cc(OCc5ccccc5)c(OC)cc43)ccc2c1` (centres unmarked) [DI, 6-(benzyloxy)-7-methoxy-1-[(E)-2-(6-methoxynaphthalen-2-yl)ethenyl]-1,2,3,4-tetrahydroisoquinoline]: 5.84 µM. The same measure, in the same setting: the result for `COc1cccc(-c2ncc(/C=C/C3NCCc4cc(OCc5ccccc5)c(OC)cc43)cn2)c1` (centres unmarked) [DN, 6-(benzyloxy)-7-methoxy-1-[(E)-2-[2-(3-methoxyphenyl)pyrimidin-5-yl]ethenyl]-1,2,3,4-tetrahydroisoquinoline] reads 17.1 µM. As to `COc1cc2c(cc1OCc1ccccc1)CCNC2/C=C/c1cc2c(cc1C)OCCC2` (centres unmarked) [CE, 6-(benzyloxy)-7-methoxy-1-[(E)-2-(7-methyl-3,4-dihydro-2H-1-benzopyran-6-yl)ethenyl]-1,2,3,4-tetrahydroisoquinoline], the CC50 at 96 h came out at 4.87 µM. The same measure, in the same setting: the same measure for `COc1cc2c(cc1OCc1ccccc1)CCNC2/C=C/c1ccc2c(c1)OCC2` (centres unmarked) [EG, 6-(benzyloxy)-1-[(E)-2-(2,3-dihydro-1-benzofuran-6-yl)ethenyl]-7-methoxy-1,2,3,4-tetrahydroisoquinoline]: 19.3 µM.

As to `COc1cc2c(cc1OCc1ccccc1)CCNC2/C=C/c1ccc(N2CCN(C)CC2)cc1` (centres unmarked) [DW, 6-(benzyloxy)-7-methoxy-1-[(E)-2-[4-(4-methylpiperazin-1-yl)phenyl]ethenyl]-1,2,3,4-tetrahydroisoquinoline], it took 2.31 µM to reach half-maximal cytotoxicity (CC50 at 96 h).

Consider `COc1cc2c(cc1OCc1ccccc1)CCNC2/C=C/c1cc2c(cc1C)OCC2` (centres unmarked) [CG, 6-(benzyloxy)-7-methoxy-1-[(E)-2-(6-methyl-2,3-dihydro-1-benzofuran-5-yl)ethenyl]-1,2,3,4-tetrahydroisoquinoline], for which the CC50 at 96 h came to 4.8 µM. The same measure, in the same setting: the same measure for `COc1cc2c(cc1OCc1ccccc1)CCNC2/C=C/c1ccccc1N1CCOCC1` (centres unmarked) [DH, 6-(benzyloxy)-7-methoxy-1-[(E)-2-[2-(morpholin-4-yl)phenyl]ethenyl]-1,2,3,4-tetrahydroisoquinoline]: 17.8 µM; for `CCOC(=O)CCCOc1cc(/C=C/C2NCCc3cc(OCc4ccccc4)c(OC)cc32)ccc1OC` (centres unmarked) [CV, ethyl 4-{5-[(E)-2-[6-(benzyloxy)-7-methoxy-1,2,3,4-tetrahydroisoquinolin-1-yl]ethenyl]-2-methoxyphenoxy}butanoate]: 2.7 µM; for `COc1cc2c(cc1OCc1ccccc1)CCNC2/C=C/c1ccc2c(c1)CCCO2` (centres unmarked) [CB, 6-(benzyloxy)-1-[(E)-2-(3,4-dihydro-2H-1-benzopyran-6-yl)ethenyl]-7-methoxy-1,2,3,4-tetrahydroisoquinoline]: 5.36 µM. Same read-out and setting: the result for `CCn1cc(/C=C/C2NCCc3cc(OCc4ccccc4)c(OC)cc32)cn1` (centres unmarked) [Example AL, 6-Benzyloxy-1-[(E)-2-(1-ethylpyrazol-4-yl)vinyl]-7-methoxy-1,2,3,4-tetrahydroisoquinoline] reads 24.2 µM; that for `COc1cc2c(cc1OCc1ccccc1)CCNC2/C=C/c1ccccc1N` (centres unmarked) [CX, 2-[(E)-2-[6-(benzyloxy)-7-methoxy-1,2,3,4-tetrahydroisoquinolin-1-yl]ethenyl]aniline], 20.8 µM. In turn, `COc1ccc(/C=C/C2NCCc3cc(OCc4ccccc4)c(OC)cc32)cc1Cn1ccnc1C` (centres unmarked) [EN, 6-(benzyloxy)-7-methoxy-1-[(E)-2-{4-methoxy-3-[(2-methyl-1H-imidazol-1-yl)methyl]phenyl}ethenyl]-1,2,3,4-tetrahydroisoquinoline] gave a CC50 at 96 h of 4.03 µM. Still for that read-out and setting: the same measure for `COc1cc2c(cc1OCc1ccccc1)CCNC2/C=C/c1cc(C)c(OC)c(C(F)(F)F)c1` (centres unmarked) [CZ, 6-(benzyloxy)-7-methoxy-1-[(E)-2-[4-methoxy-3-methyl-5-(trifluoromethyl)phenyl]ethenyl]-1,2,3,4-tetrahydroisoquinoline]: 4 µM. On the same count and under the same terms, the result for `COc1cc2c(cc1OCc1ccccc1)CCNC2/C=C/c1ccc2occc2c1` (centres unmarked) [BN, 1-[(E)-2-(1-benzofuran-5-yl)ethenyl]-6-(benzyloxy)-7-methoxy-1,2,3,4-tetrahydroisoquinoline] reads 20.7 µM. The same measure, in the same setting: the same measure for `COc1cc2c(cc1OCc1ccccc1)CCNC2/C=C/c1cc(OC)c(OC)c(OC)c1` (centres unmarked) [Example AM, 6-Benzyloxy-7-methoxy-1-[(E)-2-(3,4,5-trimethoxyphenyl)vinyl]-1,2,3,4-tetrahydroisoquinoline]: 6 µM.

`CCOC(=O)c1coc(-c2cccc(/C=C/C3NCCc4cc(OCc5ccccc5)c(OC)cc43)c2)n1` (centres unmarked) [EF, ethyl 2-{3-[(E)-2-[6-(benzyloxy)-7-methoxy-1,2,3,4-tetrahydroisoquinolin-1-yl]ethenyl]phenyl}-1,3-oxazole-4-carboxylate] showed a CC50 at 96 h of 5.9 µM.

Staying with this series, now noted: human; mock infected MT-2 cells, 96 hours, AlamarBlue; read-out: CC50.
In the case of `COc1cc2c(cc1OCc1ccccc1)CCNC2/C=C/c1cc(OC)c(OCc2ccccc2)c(OC)c1` (centres unmarked) [AP, 6-(benzyloxy)-1-[(E)-2-[4-(benzyloxy)-3,5-dimethoxyphenyl]ethenyl]-7-methoxy-1,2,3,4-tetrahydroisoquinoline], the CC50 at 96 h came out at 1.64 µM.

The values above are taken from patent US9518022B2, “Anti-HIV compounds” (priority 2014, dated 2016).
